Values of other authors, collected in US11331275B2 (Humanwell PuraCap Pharmaceuticals (Wuhan) Co., Ltd, priority 2017, dated 2022).

solubility in acetonitrile (acetonitrile): soluble
solubility in dimethylsulfoxide (dimethylsulfoxide): soluble
solubility in methanol (methanol): slightly soluble
solubility in water (water): almost insoluble
Structure (SMILES): C=C(c1ccc(C(=O)O)cc1)c1cc2c(cc1C)C(C)(C)CCC2(C)C [bexarotene, 4-[1-(5,6,7,8-tetrahydro-3,5,5,8,8-pentamethyl-2-naphthyl)ethenyl] benzoic acid]
